{
  "source": "patent US20200061018A1",
  "about": "“METHODS AND COMPOSITIONS FOR TREATING PARKINSON'S DISEASE” (Cove Bio LLC, priority 2016, published 2020)",
  "tested_on": "patient with Parkinson's disease, positive for Malassezia infection",
  "experiment": "Example 3: Parkinson's patient positive for Malassezia infection given intravenous amphotericin B deoxycholate plus intranasal saline irrigation",
  "type": "in vivo, human",
  "conditions": "i.v. 1.0 mg/kg/day for 3 weeks in combination with intranasal aqueous saline solution, follow-up 6 months after the course",
  "description": "A patient is clinically evaluated by a physician for deterioration of health because of their progression of symptoms of Parkinson's disease which include tremor, speech dysfunction, aberrant personality changes, abulia, and difficulties with mentation. Patient has no overt symptoms of Malassezia infection. […] Patient is treated with an intravenous administration of a commercially available amphotericin formulation of amphotericin B deoxycholate at 1.0 mg/kg/day in combination with a twice daily treatment regimen of intranasal aqueous saline solution. The solution comprises a mixture of 1 teaspoon of baking soda, 1.5 teaspoons of salt, and 1 quart sterilized distilled water. The solution is administered intranasally using a pulsating irrigation device. The pulsating irrigation device sends a gentle pulse of the solution into the nose via a nasal irrigation tip that can reach into and contact with the upper nasal passages. The amphotericin B treatment regimen is discontinued after 3 weeks. The total amount of amphotericin B administered to the patient over the course of treatment is about 1.8 grams. The nasal wash is continued to be administered to the patient indefinitely on a once daily basis. Routine follow-up is conducted by the physician 6 months after completion of the amphotericin B treatment course.",
  "data": [
    {"substance": "amphotericin B deoxycholate", "values": [
      {"measurement": "caregiver report of symptoms", "result": "improved mood, improved affect, decreased fatigue, decreased abulia, and improved mentation"},
      {"measurement": "progression of Parkinson's disease measured with the MDS-UPDRS", "setting": "person", "result": "halted"}
    ]}
  ]
}
